Target: T1, human adenosine A2B receptor (Homo sapiens, UniProt P29275)
T1 construct: expressed in transfected cells; host or cells: CHO.K1
T1 sequence (P29275 1-332): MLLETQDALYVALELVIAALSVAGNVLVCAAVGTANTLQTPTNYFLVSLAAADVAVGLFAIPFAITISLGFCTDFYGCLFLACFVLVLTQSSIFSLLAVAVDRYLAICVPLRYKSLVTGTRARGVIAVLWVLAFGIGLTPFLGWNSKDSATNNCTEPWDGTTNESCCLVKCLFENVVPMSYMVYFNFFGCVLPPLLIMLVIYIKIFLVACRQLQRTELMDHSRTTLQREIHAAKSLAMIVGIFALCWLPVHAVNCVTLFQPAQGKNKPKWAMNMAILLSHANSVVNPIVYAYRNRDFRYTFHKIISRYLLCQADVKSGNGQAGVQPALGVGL
Assay: Inhibitory activity on NECA-induced cyclic AMP production in CHO.K1 cells expressing human adenosine A2B receptor
Format: cell-based
Settings: 100 nM NECA, cAMP (HitHunter kit), 30-45 min incubation
Procedure: Cells were cultured under 5%CO2/95% […] atmosphere at 37° C. in DMEM and D-MEM/F-12 (1:1 mixture) medium (Invitrogen, Grand Island, N.Y.) with 10% fetal calf serum (Invitrogen, Grand Island, N.Y.), 100 U/mL penicillin (Invitrogen, Grand Island, N.Y.), 100 U/mL streptomycin (Invitrogen, Grand Island, N.Y.), 1 mg/mL G418 (Invitrogen, Grand Island N.Y.) and 0.2 mg/mL Hygromycin B (Invitrogen, Carlsbad, Calif.). Experimental cultures were grown overnight as a monolayer in 384-well tissue culture plates (0.06 ml/well-7500 cells/well). Each well was washed once with 0.1 mL of Krebs buffer. To each well was added 50 uL of Krebs buffer containing 100 uM of the phosphodiesterase inhibitor 4-(3-butoxy-4-methoxybenzyl)-2-imidazolidinone, 100 nM NECA (Sigma-Aldrich, St. Louis, Mo.), 0.02% BSA Fraction V (Roche Biochemicals), the test compound (appropriate concentration). The final concentration of DMSO was 1.1%. After incubation for 30-45 min, the wells were emptied and blotted on paper towel to remove residual solution. The HitHunter™ cAMP Assay Kit from DiscoverX for adherent cells (Fremont, Calif.) was used for lysing the cells and measuring cAMP concentrations.

| Structure (SMILES) | IC50 [nM] |
| --- | --- |
| COc1ncnc2sc(NC(=O)N3CCC(NCc4ccc(F)c(C(F)(F)F)c4)C3)nc12 (stereo in doubt) [Example 87, (R)-3-(4-Fluoro-3-trifluoromethyl-benzylamino)-pyrrolidine-1-carboxylic acid (7-methoxy-thiazolo[5,4-d]pyrimidin-2-yl)-amide] | 2 |
| COc1ncnc2sc(NC(=O)N3CCN(Cc4cccc(C(F)(F)F)c4)CC3)nc12 [Example 1, 4-(3-trifluoromethyl-benzyl)-piperazine-1-carboxylic acid (7-methoxy-thiazolo[5,4-d]pyrimidin-2-yl)-amide] | 5 |
| COC(=O)c1cccc(CN2CCN(C(=O)Nc3nc4c(OC)ncnc4s3)CC2)c1 [Example 10, 3-[4-(7-Methoxy-thiazolo[5,4-d]pyrimidin-2-ylcarbamoyl)-piperazin-1-ylmethyl]-benzoic acid methyl ester] | 30 |
| COc1ncnc2sc(NC(=O)N3CCN(Cc4cccc(OCCO)c4)CC3)nc12 [Example 16, 4-[3-(2-Hydroxy-ethoxy)-benzyl]-piperazine-1-carboxylic acid (7-methoxy-thiazolo[5,4-d]pyrimidin-2-yl)-amide] | 197 |
| COc1ncnc2sc(NC(=O)N3CCN(Cc4cccc(C(=O)O)c4O)CC3)nc12 [Example 27, 2-Hydroxy-3-[4-(7-methoxy-thiazolo[5,4-d]pyrimidin-2-ylcarbamoyl)-piperazin-1-ylmethyl]-benzoic acid] | 1560 |
| COc1ncnc2sc(NC(=O)N3CCC4(CC3)C(=O)NC[C@H]4c3ccc(F)cc3)nc12 [Example 31, 4-(4-Fluoro-phenyl)-1-oxo-2,8-diazaspiro[4,5]decane-8-carboxylic acid(7-methoxy-thiazolo[5,4-d]pyrimidin-2-yl)-amide] | 9 |
| COc1ncnc2sc(NC(=O)N3CCC4(CC3)CN(S(C)(=O)=O)c3ccc(Cl)cc34)nc12 [Example 48, 5-Chloro-1,2-dihydro-N-(7-methoxythiazole[5,4-d]pyrimidin-2-yl)-1-(methylsulfonyl)spiro[3H-indole-3,4′-piperidine]-1′-carboxamide] | 9 |
| CCOC(=O)C1(Cc2ccc(OC(F)(F)F)cc2)CCCN(C(=O)Nc2nc3c(OC)ncnc3s2)C1 (centres unmarked) [Example 54, 1-(7-Methoxy-thiazolo[5,4-d]pyrimidin-2-ylcarbamoyl)-3-(4-trifluoromethoxy-benzyl)-piperidine-3-carboxylic acid ethyl ester] | 1460 |
| COc1ncnc2sc(NC(=O)N3CCC(n4c(=O)[nH]c5ccccc54)CC3)nc12 [Example 57, 4-(2-Oxo-2,3-dihydro-benzoimidazol-1-yl)-piperidine-1-carboxylic acid (7-methoxy-thiazolo[5,4-d]pyrimidin-2-yl)-amide] | 52 |
| COc1ncnc2sc(NC(=O)N3CCC(N4CCCC4c4ccccc4)CC3)nc12 (centres unmarked) [Example 62, 4-(2-Phenyl-pyrrolidin-1-yl)-piperidine-1-carboxylic acid (7-methoxy-thiazolo[5,4-d]pyrimidin-2-yl)-amide] | 218 |
| COc1ncnc2sc(NC(=O)N3CC=C(c4cccc(C(F)(F)F)c4)CC3)nc12 [Example 67, 4-(3-Trifluoromethyl-phenyl)-3,6-dihydro-2H-pyridine-1-carboxylic acid (7-methoxy-thiazolo[5,4-d]pyrimidin-2-yl)-amide] | 51 |
| COC(=O)c1ccccc1S(=O)(=O)C1CCN(C(=O)Nc2nc3c(OC)ncnc3s2)CC1 [Example 76, 2-[1-(7-Methoxy-thiazolo[5,4-d]pyrimidin-2-ylcarbamoyl)-piperidine-4-sulfonyl]-benzoic acid methyl ester] | 73 |
| COc1ncnc2sc(NC(=O)N3CC[C@H](NC(=O)c4ccc(F)c(C(F)(F)F)c4)C3)nc12 [Example 89, (S)-3-(4-fluoro-3-trifluoromethyl-benzoylamino)-pyrrolidine-1-carboxylic acid (7-methoxy-thiazolo[5,4-d]pyrimidin-2-yl)-amide] | 4 |
| COc1ncnc2sc(NC(=O)N3CCc4cc(C(F)(F)F)ccc4C3)nc12 [Example 95, 6-Trifluoromethyl-3,4-dihydro-1H-isoquinoline-2-carboxylic acid (7-methoxy-thiazolo[5,4-d]pyrimidin-2-yl)-amide] | 115 |

Reference: patent publication US7947692B2, “Substituted thiazolo[5,4-d]pyrimidine urea derivatives” (Hoffmann-La Roche Inc., priority 2006, dated 2011)
